According to patent US8784856B2, “Meadowfoam-based bioherbicide products” (The State of Oregon Acting by and Through the State Boad of …, priority 2007, dated 2014):
“Also recorded” adds a separate entry of the source.

Columns and labels:
Wheat [1] = conditions: in vivo; cited from earlier work
fungi = conditions: cited from earlier work
[2] = system: potato cyst Nematode (Globodera rostochiensis Ct. Woll); conditions: in vivo; cited from earlier work
[3] = system: root lesion nematode (Pratylenchus neglectus); conditions: in vivo; cited from earlier work
[4] = system: postharvest fruit pathogens; conditions: cited from earlier work
[5] = system: downy brome (Bromus tectorum) seeds; assay: Assay for herbicidal activity: downy brome seed germination in soil; assay type: in vivo; conditions: for inhibition of downy brome germination at the highest concentration tested: 0.89 mg g^−1, FIG. 11; for effectiveness in inhibiting downy brome germination, in words: FIG. 11, comparison of compounds 1-4; for activity as seed germination inhibitors (downy brome): compared with MBITC, 82 hours and 168 hours, FIG. 8
Method: Assay for herbicidal activity. About 45 g of clean soil was weighed into 10-cm diameter Petri dishes. For germination testing of individual compounds (1-4), 15.0 mL of test solution was added to each dish. Glucolimanthin 1 (GLN) was dissolved in water and compounds 2-4 in ethanol. The ethanolic solutions were applied to the dishes, allowed to evaporate overnight in a hood, and then 15 mL of water was added to the dishes. Meal products were mixed with soil, followed by the addition of 15 mL of water. Fifteen seeds of Bromus tectorum were placed in concentric circles within each dish. Petri dishes with lids were placed in an incubator at 20° C. during day time (8 hrs) and at 15° C. at night time (16 hrs) for 7 days. Germination was recorded as root emergence.

[6] = Degradation of GLN in aqueous FeSO4 solution (HPLC); assay type: physicochemical; conditions: 1 mM GLN with 10 mM FeSO4 at room temperature; FIG. 3B
Source text: HPLC. The HPLC equipment consisted of a Waters Delta 600 solvent delivery system, a Waters 717 plus Autosampler, a Waters 2996 photodiode array detector, a Waters 600 controller and a data acquisition/processing computer with Empower™ software (Waters, Milford, Mass.). In HPLC system 1, separations were achieved on a reverse-phase Lichrosphere 5 μm C18 column (4×250 mm, Phenomenex, Torrance, Calif.). The HPLC solvents were 0.1% aqueous trifluoroacetic acid (solvent A) and MeCN (solvent B). A linear solvent gradient was employed starting from 5% solvent B in solvent A to 100% B over 30 min at a flow rate of 1.0 mL/min. After returning to the starting conditions in 1 min, the column was equilibrated for 10 min before the next injection. The injection volume was 20 μL. On-line UV spectra were recorded in the range 220-500 nm and the λ274 nm trace was used for calculation of peak areas. Analyte concentrations were determined from calibration curves constructed for each analyte.

[7] = system: velvetleaf (Abutilon theophrasti); conditions: in vivo; cited from earlier work
Wheat [8] = conditions: in vivo; cited from earlier work; remark: listed apart in the source
[9] = system: fall armyworm (Lepidoptera: Noctuidae); conditions: compared with benzyl ITC and synthetic analogs; cited from earlier work
Aphamyces euteiches = conditions: cited from earlier work
[10] = system: velvetleaf, sicklepod, milo, and pitted morning glory; conditions: formulated as granules; all weed types; cited from earlier work
[11] = system: benzo[a]pyrene-induced stomach tumors; conditions: mice dosed with test compound; cited from earlier work
Helicobacter pylori = conditions: cited from earlier work
[12] = system: human retinal pigment epithelial cells, keratinocytes, and mouse leukemia cells; conditions: cited from earlier work
[13] = system: skin damage by UV radiation; conditions: human subjects, topically applied; cited from earlier work
phase 2 enzymes = conditions: after treatment; cited from earlier work
[14] = system: phase II enzymes (e.g., NAD(P)H:quinone reductase); conditions: cited from earlier work

S=C=NCCc1ccccc1 [2-phenylethyl ITC]
order of effectiveness against wheat (Wheat [1]): 2-phenylethyl ITC>allyl ITC>benzyl ITC | activity against fungi (fungi): good activity | activity on potato cyst nematode [2]: performed well | effect on root lesion nematode [3]: suppression

C=CCCN=C=S [3-butenyl ITC]
activity against spore germination [4]: lower activity

Oc1ccc(CN=C=S)cc1 [4-hyxdroxybenzl]
activity against spore germination [4]: equal

COc1cccc(C/C(=N/OS(=O)(=O)O)S[C@@H]2O[C@H](CO)[C@@H](O)[C@H](O)[C@H]2O)c1 [GLN, glucolimnanthin]
inhibition of downy brome germination at the highest concentration tested [5]: only slightly inhibited | effectiveness in inhibiting downy brome germination, in words [5]: least effective | effect of GLN on downy brome seed germination ([5]; levels corresponding to those found in MSM (0.4 mg GLN per g soil), 7 days, FIG. 7): no germination inhibitory activity; also recorded: no effect; also recorded: No difference | degradation of GLN [6]: did not result in significant degradation

COc1cccc(CN=C=S)c1 [MBITC, 3-Methoxybenzyl isothiocyanate]
inhibition of downy brome germination at the highest concentration tested [5]: failed to completely inhibit | effectiveness in inhibiting downy brome germination, in words [5]: not as effective | activity as seed germination inhibitors (downy brome) [5]: moderately active | seed germination inhibitory / allelopathic activity against velvetleaf [7]: greater activity | seed germination inhibitory / allelopathic activity against wheat (Wheat [8]): greater activity | effectiveness against armyworm [9]: more effective

COc1cccc(CC#N)c1 [MPAN, 3-Methoxyphenylacetonitrile]
inhibition of downy brome germination at the highest concentration tested [5]: completely inhibiting | effectiveness in inhibiting downy brome germination, in words [5]: most effective | activity as seed germination inhibitors (downy brome) [5]: more active | seed germination inhibitory / allelopathic activity against velvetleaf [7]: seed germination inhibitory effects | seed germination inhibitory / allelopathic activity against wheat (Wheat [8]): seed germination inhibitory effects

C=CCN=C=S [allyl ITC]
order of effectiveness against wheat (Wheat [1]): 2-phenylethyl ITC>allyl ITC>benzyl ITC | activity against spore germination [4]: equal | performance against pathogen causing pea root rot (Aphamyces euteiches): performed well | activity on potato cyst nematode [2]: performed well

S=C=NCc1ccccc1 [benzyl ITC]
order of effectiveness against wheat (Wheat [1]): 2-phenylethyl ITC>allyl ITC>benzyl ITC | inhibition of weed germination [10]: inhibition of germination | activity against spore germination [4]: lower activity | activity against fungi (fungi): good activity | activity on potato cyst nematode [2]: performed well

CN=C=S [methyl ITC]
performance against pathogen causing pea root rot (Aphamyces euteiches): performed well

C[S+]([O-])CCCCN=C=S (stereo not shown) [sulforaphane, 4-methylsulfinylbuthyl ITC]
effect on benzo[a]pyrene-induced stomach tumors [11]: blocked | antibacterial properties against Helicobacter pylori (Helicobacter pylori): bacteriostatic and bactericidal properties | glutathione after treatment [12]: increase | protection of cells against oxidative damage [12]: powerful and prolonged protection | erythema and inflammation induced by UV radiation [13]: reduced | phase 2 enzymes in mouse and human skin (phase 2 enzymes): Up-regulation | induction of phase II enzymes [14]: high activity

CS/C=C/CCN=C=S [trans-4-methylthio-3-butenyl ITC]
activity against spore germination [4]: equal | activity against fungi (fungi): good activity
